Data: patent US10898481B2 (priority 2018, dated 2021)

Columns and labels:
mA2a/CHO = mA2a/CHO (Mus musculus (Mouse), UniProt Q60613); assay: cAMP inhibition assay in mA2a/CHO cells, 10 μM adenosine; type: cell-based; settings: read-out: cAMP & FLIPR IC50 (nM) mA2a;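 further: compounds preincubated 30 min at 37 °C before the adenosine challenge, then 30 min further stimulation, readout after 60 min detection reagent incubation at room temperature in 384-well plates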
Procedure: (§1) hA2a/CHO, hA2b/CHO, hA3/CHO and mA2a/CHO (Genscript) were plated at 5×10^3 cells/well into 384-well polystyrene plates at the day of experiment. Compounds were pre-incubated with cells for 30 min at 37° C., 5% CO2. Then 10 μM adenosine was added to the cells and incubated for 30 min at 37° C., 5% CO2. Detection reagent (CISBIO) was added and the plates were incubated for 60 min at room temperature. The signal was captured by Envision.

[1] = target: hADORA1/CHO (hA1 expressing) cells (Homo sapiens (Human), UniProt P30542); assay: cell-based; settings: FLIPR inhibition, 10 μM adenosine, read-out: cAMP & FLIPR IC50 (nM) hA1
hADORA1/CHO (hA1 expressing) cells, sequence (P30542 whole entry): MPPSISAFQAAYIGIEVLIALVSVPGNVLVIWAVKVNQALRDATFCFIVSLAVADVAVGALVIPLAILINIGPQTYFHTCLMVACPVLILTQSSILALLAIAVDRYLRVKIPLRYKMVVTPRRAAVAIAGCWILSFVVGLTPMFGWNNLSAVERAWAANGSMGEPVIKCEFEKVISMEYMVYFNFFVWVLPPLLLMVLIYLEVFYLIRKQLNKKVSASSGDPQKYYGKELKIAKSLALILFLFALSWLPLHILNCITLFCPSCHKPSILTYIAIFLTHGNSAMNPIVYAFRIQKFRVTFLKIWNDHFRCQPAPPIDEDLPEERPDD

hA2a/CHO = hA2a/CHO (Homo sapiens (Human), UniProt P29274); assay: cAMP inhibition assay in hA2a/CHO cells, 10 μM adenosine; type: cell-based; settings: read-out: cAMP & FLIPR IC50 (nM) hA2a;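 further: compounds added to cells 30 min ahead of adenosine, then a further 30 min at 37 °C with adenosine before cAMP detection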
hA2a/CHO, sequence (P29274 whole entry): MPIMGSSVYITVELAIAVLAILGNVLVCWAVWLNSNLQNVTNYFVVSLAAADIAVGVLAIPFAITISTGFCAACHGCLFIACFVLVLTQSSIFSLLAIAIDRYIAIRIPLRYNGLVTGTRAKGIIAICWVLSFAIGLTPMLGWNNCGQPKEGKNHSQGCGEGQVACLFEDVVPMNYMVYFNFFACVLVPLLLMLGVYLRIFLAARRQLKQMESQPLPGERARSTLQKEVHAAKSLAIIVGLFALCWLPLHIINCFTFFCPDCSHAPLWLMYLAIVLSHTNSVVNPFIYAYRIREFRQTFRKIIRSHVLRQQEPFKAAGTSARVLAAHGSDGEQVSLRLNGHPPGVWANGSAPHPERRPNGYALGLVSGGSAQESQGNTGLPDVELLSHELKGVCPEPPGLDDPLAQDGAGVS
Procedure: as §1

hA2b/CHO = hA2b/CHO (Homo sapiens (Human), UniProt P29275); assay: cAMP inhibition assay in hA2b/CHO cells, 10 μM adenosine; type: cell-based; settings: read-out: cAMP & FLIPR IC50 (nM) hA2b;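 further: cells exposed to compound 30 min at 37 °C, then stimulated with adenosine a further 30 min, cAMP read after 60 min at room temperature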
hA2b/CHO, sequence (P29275 whole entry): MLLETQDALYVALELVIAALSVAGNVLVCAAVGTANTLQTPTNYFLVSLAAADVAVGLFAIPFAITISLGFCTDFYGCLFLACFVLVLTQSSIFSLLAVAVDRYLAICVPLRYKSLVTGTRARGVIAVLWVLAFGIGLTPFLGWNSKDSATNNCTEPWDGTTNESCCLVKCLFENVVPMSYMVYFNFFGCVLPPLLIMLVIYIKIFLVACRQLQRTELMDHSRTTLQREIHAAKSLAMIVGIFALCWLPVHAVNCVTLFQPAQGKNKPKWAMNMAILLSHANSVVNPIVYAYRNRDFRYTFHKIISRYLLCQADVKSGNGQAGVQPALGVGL
Procedure: as §1

mA2a/CHO, sequence (Q60613 whole entry): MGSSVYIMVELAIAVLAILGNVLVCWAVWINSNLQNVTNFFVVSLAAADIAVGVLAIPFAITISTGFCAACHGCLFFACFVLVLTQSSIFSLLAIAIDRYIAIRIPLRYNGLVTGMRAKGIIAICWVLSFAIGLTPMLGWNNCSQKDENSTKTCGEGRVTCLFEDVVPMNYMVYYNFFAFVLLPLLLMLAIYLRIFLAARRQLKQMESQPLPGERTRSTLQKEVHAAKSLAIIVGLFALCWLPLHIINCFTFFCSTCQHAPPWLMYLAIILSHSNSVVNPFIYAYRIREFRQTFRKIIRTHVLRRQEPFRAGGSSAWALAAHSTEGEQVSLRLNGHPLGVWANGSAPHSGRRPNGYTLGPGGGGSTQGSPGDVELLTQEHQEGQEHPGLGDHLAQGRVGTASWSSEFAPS

COC(C)CNC(=O)c1nc(-c2ccc3ncc(C)n3c2)c(-c2ncco2)nc1N (single isomer, unassigned; isomer 1) [Example 248, 3-amino-N-(2-methoxypropyl)-6-(3-methylimidazo[1,2-a]pyridin-6-yl)-5-(oxazol-2-yl)pyrazine-2-carboxamide (isomer 1)]
IC50 (mA2a/CHO): 18 nM | IC50 [1]: 121 nM | IC50 (hA2a/CHO): 2.9 nM | IC50 (hA2b/CHO): 140 nM

CNc1ccc(F)c(CNC(=O)c2nc(-c3ccc(=O)n(C)c3)c(-c3ncco3)nc2N)n1 [Example 50, 3-amino-N-[[3-fluoro-6-(methylamino)pyridin-2-yl]methyl]-6-(1-methyl-6-oxo-1,6-dihydropyridin-3-yl)-5-(1,3-oxazol-2-yl)pyrazine-2-carboxamide]
IC50 (mA2a/CHO): 85 nM | IC50 [1]: 90 nM | IC50 (hA2a/CHO): 33 nM | IC50 (hA2b/CHO): 249 nM

Cc1cnc2ccc(-c3nc(C(=O)NCCS(C)(=O)=O)c(N)nc3-c3ccc(F)cc3)cn12 [Example 150, 3-amino-5-(4-fluorophenyl)-6-(3-methylimidazo[1,2-a]pyridin-6-yl)-N-(2-(methylsulfonyl)ethyl)pyrazine-2-carboxamide]
IC50 (mA2a/CHO): 6.5 nM | IC50 [1]: 26 nM | IC50 (hA2a/CHO): 3.4 nM | IC50 (hA2b/CHO): 108 nM

CNc1cccnc1CNC(=O)c1nc(-c2ccc(=O)n(C)c2)c(-c2ncco2)nc1N [Example 46, 3-amino-6-(1-methyl-6-oxo-1,6-dihydropyridin-3-yl)-N-((3-(methylamino)pyridin-2-yl)methyl)-5-(oxazol-2-yl)pyrazine-2-carboxamide]
IC50 (mA2a/CHO): 125 nM | IC50 [1]: 488 nM | IC50 (hA2a/CHO): 102 nM | IC50 (hA2b/CHO): 1620 nM

Cc1cc(-c2nc(C(=O)NCc3ncccc3F)c(N)nc2-c2ccc(F)cc2)cc(C)n1 [Example 1, 3-amino-6-(2,6-dimethylpyridin-4-yl)-5-(4-fluorophenyl)-N-((3-fluoropyridin-2-yl)methyl)pyrazine-2-carboxamide]
IC50 (mA2a/CHO): 1060 nM | IC50 (hA2a/CHO): 151 nM | IC50 (hA2b/CHO): ≥ 10000 nM

Cc1cnc2ccc(-c3nc(CNC(=O)[C@H]4CCCN4C)c(N)nc3-c3ccc(F)cc3)cn12 [Example 157, (2R)—N-[[3-amino-5-(4-fluorophenyl)-6-[3-methylimidazo[1,2-a]pyridin-6-yl]pyrazin-2-yl]methyl]-1-methylpyrrolidine-2-carboxamide]
IC50 (mA2a/CHO): 2.9 nM | IC50 (hA2a/CHO): 0.3 nM | IC50 (hA2b/CHO): 59 nM

Cc1ccn(-c2nc(N)c(C(=O)Nc3ccccc3OC(F)F)nc2-c2ccc(=O)n(C)c2)n1 [Example 59, 3-amino-N-(2-(difluoromethoxy)phenyl)-5-(3-methyl-1H-pyrazol-1-yl)-6-(1-methyl-6-oxo-1,6-dihydropyridin-3-yl)pyrazine-2-carboxamide]
IC50 (mA2a/CHO): 66 nM | IC50 (hA2a/CHO): 29 nM | IC50 (hA2b/CHO): ≥ 10000 nM

COc1ccccc1CNC(=O)c1nc(-c2cc(C)nc(C)c2)c(-c2cnn(C)c2)nc1N [Example 63, 3-amino-6-(2,6-dimethylpyridin-4-yl)-N-(2-methoxybenzyl)-5-(1-methyl-1H-pyrazol-4-yl)pyrazine-2-carboxamide]
IC50 (mA2a/CHO): 601 nM | IC50 (hA2a/CHO): 33 nM | IC50 (hA2b/CHO): ≥ 10000 nM

Cc1cc(-c2nc(C(=O)NCc3c(F)cccc3F)c(N)nc2-c2cnn(C)c2)cc(C)n1 [Example 64, 3-amino-N-(2,6-difluorobenzyl)-6-(2,6-dimethylpyridin-4-yl)-5-(1-methyl-1H-pyrazol-4-yl)pyrazine-2-carboxamide]
IC50 (mA2a/CHO): ≥ 10000 nM | IC50 (hA2a/CHO): 52 nM | IC50 (hA2b/CHO): ≥ 10000 nM

COc1cccc(F)c1CNC(=O)c1nc(-c2cc(C)nc(C)c2)c(-c2ccc(F)cc2)nc1N [Example 90, 3-amino-6-(2,6-dimethylpyridin-4-yl)-N-(2-fluoro-6-methoxybenzyl)-5-(4-fluorophenyl)pyrazine-2-carboxamide]
IC50 (mA2a/CHO): 95 nM | IC50 (hA2a/CHO): 4 nM | IC50 (hA2b/CHO): 781 nM

Cc1cc(-c2nc(C(=O)NCc3c(F)cccc3F)c(N)nc2-c2ccc(C)o2)cc(C)n1 [Example 62, 3-amino-N-(2,6-difluorobenzyl)-6-(2,6-dimethylpyridin-4-yl)-5-(5-methylfuran-2-yl)pyrazine-2-carboxamide]
IC50 (mA2a/CHO): 28 nM | IC50 (hA2a/CHO): 1.8 nM | IC50 (hA2b/CHO): ≥ 10000 nM

Cc1cnc2ccc(-c3nc(C(=O)NCC4CCCCN4C)c(N)nc3-c3ncco3)cn12 (single isomer, unassigned; isomer 2) [Example 125, 3-amino-6-(3-methylimidazo[1,2-a]pyridin-6-yl)-N-((1-methylpiperidin-2-yl)methyl)-5-(oxazol-2-yl)pyrazine-2-carboxamide (isomer 2)]
IC50 (mA2a/CHO): ≥ 10000 nM | IC50 (hA2a/CHO): 1440 nM | IC50 (hA2b/CHO): ≥ 10000 nM

COc1ccccc1CNC(=O)c1nc(-c2cc(C)nc(Cl)c2)c(-c2ccc(F)cc2)nc1N [Example 68, 3-amino-6-(2-chloro-6-methylpyridin-4-yl)-5-(4-fluorophenyl)-N-(2-methoxy-benzyl)pyrazine-2-carboxamide]
IC50 (mA2a/CHO): 64 nM | IC50 (hA2a/CHO): 7.5 nM | IC50 (hA2b/CHO): 952 nM

Cc1cc(-c2nc(C(=O)NCc3ccccc3OC(F)F)c(N)nc2-c2ccc(F)cc2)cc(C)n1 [Example 91, 3-amino-N-(2-(difluoromethoxy)benzyl)-6-(2,6-dimethylpyridin-4-yl)-5-(4-fluorophenyl)pyrazine-2-carboxamide]
IC50 (mA2a/CHO): 72 nM | IC50 (hA2a/CHO): 8.9 nM | IC50 (hA2b/CHO): 1420 nM

CCn1cc(-c2nc(C(=O)NCc3ccccc3OC)c(N)nc2-c2ccc(F)cc2)ccc1=O [Example 69, 3-amino-6-(1-ethyl-6-oxo-1,6-dihydro-pyridin-3-yl)-5-(4-fluorophenyl)-N-(2-methoxybenzyl)pyrazine-2-carboxamide]
IC50 (mA2a/CHO): 20 nM | IC50 (hA2a/CHO): 15 nM | IC50 (hA2b/CHO): 213 nM

COc1ccccc1CNC(=O)c1nc(-c2cc(C)nc(C)c2)c(-c2ccc(F)cc2)nc1N [Example 89, 3-amino-6-(2,6-dimethylpyridin-4-yl)-5-(4-fluorophenyl)-N-(2-methoxybenzyl)pyrazine-2-carboxamide]
IC50 (mA2a/CHO): 297 nM | IC50 (hA2a/CHO): 17 nM | IC50 (hA2b/CHO): 5620 nM

COc1ccccc1CNC(=O)c1nc(-c2cc(C)c(=O)n(C)c2)c(-c2ccc(F)cc2)nc1N [Example 82, 3-amino-6-(1,5-dimethyl-6-oxo-1,6-dihydropyridin-3-yl)-5-(4-fluorophenyl)-N-(2-methoxybenzyl)pyrazine-2-carboxamide]
IC50 (mA2a/CHO): 59 nM | IC50 (hA2a/CHO): 19 nM | IC50 (hA2b/CHO): 276 nM

COc1ccc(F)cc1CNC(=O)c1nc(-c2cc(C)nc(C)c2)c(-c2ccc(F)cc2)nc1N [Example 92, 3-amino-6-(2,6-dimethylpyridin-4-yl)-N-(5-fluoro-2-methoxybenzyl)-5-(4-fluorophenyl)pyrazine-2-carboxamide]
IC50 (mA2a/CHO): 216 nM | IC50 (hA2a/CHO): 41 nM | IC50 (hA2b/CHO): ≥ 10000 nM

COc1ccccc1CNC(=O)c1nc(-c2cc(C)nc(C)c2)c(-c2ccccc2)nc1N [Example 93, 3-amino-6-(2,6-dimethylpyridin-4-yl)-N-(2-methoxybenzyl)-5-phenylpyrazine-2-carboxamide]
IC50 (mA2a/CHO): 127 nM | IC50 (hA2a/CHO): 8 nM | IC50 (hA2b/CHO): 354 nM

Cc1cc(-c2nc(C(=O)Nc3ccccc3OC(F)F)c(N)nc2-n2ccc(C)n2)cc(N)n1 [Example 60, 3-amino-6-(2-amino-6-methylpyridin-4-yl)-N-(2-(difluoromethoxy)phenyl)-5-(3-methyl-1H-pyrazol-1-yl)pyrazine-2-carboxamide]
IC50 (mA2a/CHO): 150 nM | IC50 (hA2a/CHO): 24 nM | IC50 (hA2b/CHO): ≥ 10000 nM
